In article PMC2710007, “Anchoring Secreted Proteins in Endoplasmic Reticulum by Plant Oleosin: The Example of Vitamin B12 Cellular Sequestration by Transcobalamin” (PLoS ONE, 2009):

Molecular target: T1, transcobalamin-oleosin (TC-O) chimera (Homo sapiens, UniProt P20062)
T1 construct: gene TCN2; single fusion: human TC without N-terminal signal peptide and stop codon, at the N-terminal side of full-length peanut oleosin (ER anchor; printed oleosin primer encodes MATATDR...); pAcSG2 baculovirus, Sf9 cells; membrane fraction, not purified; with Oleosin (peanut, 17 kDa)
T1 sequence (P20062 19-427): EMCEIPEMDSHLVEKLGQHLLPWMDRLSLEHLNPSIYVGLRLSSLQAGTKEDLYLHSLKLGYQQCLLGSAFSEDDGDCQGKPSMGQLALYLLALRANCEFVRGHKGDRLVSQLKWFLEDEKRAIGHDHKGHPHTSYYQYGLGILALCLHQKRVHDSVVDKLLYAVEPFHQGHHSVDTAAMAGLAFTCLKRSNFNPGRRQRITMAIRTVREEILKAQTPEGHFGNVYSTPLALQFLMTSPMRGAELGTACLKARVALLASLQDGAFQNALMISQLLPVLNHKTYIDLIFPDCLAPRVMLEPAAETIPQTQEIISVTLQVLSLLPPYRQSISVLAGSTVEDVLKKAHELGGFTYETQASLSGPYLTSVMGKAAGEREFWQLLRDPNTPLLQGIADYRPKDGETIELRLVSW
Assay: radioligand saturation binding, Scatchard plot
Format: biochemical
Details: membrane fraction of lysed Sf9 cells; 57Co labelled compound; TBS, 4 °C, 20 min; printed as Ka but in a concentration unit (that of a dissociation constant)

- Ka: ~ 0.02 pmol/L
Substance: [57Co]-labeled vitamin B12
